# Reference: ChEMBL document CHEMBL4350989, “Discovery of 2,4-diarylaminopyrimidine derivatives bearing dithiocarbamate moiety as novel FAK inhibitors with antitumor and anti-angiogenesis activities” (Eur J Med Chem, 2019)
# System: HCT-116
# Test: Antiproliferative activity against human HCT116 cells overexpressing FAK assessed as reduction in cell viability after 72 hrs by MTS assay
# Conditions: HCT-116, 72 h
row,Structure (SMILES),IC50 [nM]
1,CNC(=O)c1ccccc1Nc1nc(Nc2ccc(C(=O)N3CCN(C(=S)SCCN4CCCC4)CC3)cc2)ncc1Cl,10
2,CNC(=O)c1ccccc1Nc1ccnc(Nc2ccc(C(=O)N3CCN(C(=S)SCCN(C)C)CC3)cc2)n1,440
3,CNC(=O)c1ccccc1Nc1nc(Nc2ccc(C(=O)N3CCN(C(=S)SCCC#N)CC3)cc2)ncc1Cl,30
4,CNC(=O)c1ccccc1Nc1nc(Nc2ccc(C(=O)N3CCN(C(=S)SCc4ccncc4)CC3)cc2)ncc1Cl,60
5,CNC(=O)c1ccccc1Nc1nc(Nc2ccc(C(=O)N3CCN(C(=S)SCC(C)O)CC3)cc2)ncc1Cl (centres undefined),30
6,C=CCSC(=S)N1CCN(C(=O)c2ccc(Nc3ncc(Cl)c(Nc4ccccc4C(=O)NC)n3)cc2)CC1,110
7,CNC(=O)c1ccccc1Nc1nc(Nc2ccc(C(=O)N3CCN(C(=S)SCCN(C)C)CC3)cc2)ncc1C,10
8,CNC(=O)c1ccc(Nc2ncc(C(F)(F)F)c(NCc3nccnc3N(C)S(C)(=O)=O)n2)cc1 [DEFACTINIB],2650 to 3020
9,CNC(=O)c1ccccc1Nc1nc(Nc2ccc(C(=O)N3CCN(C(=S)SCCOC)CC3)cc2)ncc1Cl,40
10,CNC(=O)c1ccccc1Nc1nc(Nc2ccc(C(=O)N3CCN(C(=S)SCCN4CCCCC4)CC3)cc2)ncc1Cl,10

# Second part, the molecule after the results:
row,IC50 [nM],Structure (SMILES)
1,10,CNC(=O)c1ccccc1Nc1nc(Nc2ccc(C(=O)N3CCN(C(=S)SCCN4CCN(C)CC4)CC3)cc2)ncc1Cl
2,30,CNC(=O)c1ccccc1Nc1nc(Nc2ccc(C(=O)N3CCN(C(=S)SCCS(C)(=O)=O)CC3)cc2)ncc1Cl
3,260,CNC(=O)c1ccccc1Nc1nc(Nc2ccc(C(=O)N3CCN(C(=S)SCCC(=O)OC)CC3)cc2)ncc1Cl
4,3520,CNC(=O)c1ccccc1Nc1nc(Nc2ccc(C(=O)N3CCN(C(=S)SCCN4CCOCC4)CC3)cc2)ncc1Cl

# System: PC-3
# Test: Antiproliferative activity against human PC3 cells overexpressing FAK assessed as reduction in cell viability after 72 hrs by MTS assay
# Conditions: PC-3, 72 h
row,Structure (SMILES),IC50 [nM]
1,CNC(=O)c1ccccc1Nc1nc(Nc2ccc(C(=O)N3CCN(C(=S)SCCN4CCCC4)CC3)cc2)ncc1Cl,220
2,CNC(=O)c1ccccc1Nc1ccnc(Nc2ccc(C(=O)N3CCN(C(=S)SCCN(C)C)CC3)cc2)n1,3010
3,CNC(=O)c1ccccc1Nc1nc(Nc2ccc(C(=O)N3CCN(C(=S)SCCC#N)CC3)cc2)ncc1Cl,170
4,CNC(=O)c1ccccc1Nc1nc(Nc2ccc(C(=O)N3CCN(C(=S)SCc4ccncc4)CC3)cc2)ncc1Cl,360
5,CNC(=O)c1ccccc1Nc1nc(Nc2ccc(C(=O)N3CCN(C(=S)SCC(C)O)CC3)cc2)ncc1Cl (centres undefined),200
6,C=CCSC(=S)N1CCN(C(=O)c2ccc(Nc3ncc(Cl)c(Nc4ccccc4C(=O)NC)n3)cc2)CC1,1020
7,CNC(=O)c1ccccc1Nc1nc(Nc2ccc(C(=O)N3CCN(C(=S)SCCN(C)C)CC3)cc2)ncc1C,270
8,CNC(=O)c1ccc(Nc2ncc(C(F)(F)F)c(NCc3nccnc3N(C)S(C)(=O)=O)n2)cc1 [DEFACTINIB],> 20000
9,CNC(=O)c1ccccc1Nc1nc(Nc2ccc(C(=O)N3CCN(C(=S)SCCOC)CC3)cc2)ncc1Cl,460
10,CNC(=O)c1ccccc1Nc1nc(Nc2ccc(C(=O)N3CCN(C(=S)SCCN4CCCCC4)CC3)cc2)ncc1Cl,380

# Next, values leading:
row,IC50 [nM],Structure (SMILES)
1,260,CNC(=O)c1ccccc1Nc1nc(Nc2ccc(C(=O)N3CCN(C(=S)SCCN4CCN(C)CC4)CC3)cc2)ncc1Cl
2,520,CNC(=O)c1ccccc1Nc1nc(Nc2ccc(C(=O)N3CCN(C(=S)SCCS(C)(=O)=O)CC3)cc2)ncc1Cl
3,1990,CNC(=O)c1ccccc1Nc1nc(Nc2ccc(C(=O)N3CCN(C(=S)SCCC(=O)OC)CC3)cc2)ncc1Cl
4,230,CNC(=O)c1ccccc1Nc1nc(Nc2ccc(C(=O)N3CCN(C(=S)SCCN4CCOCC4)CC3)cc2)ncc1Cl

# System: U-87 MG
# Test: Antiproliferative activity against human U87MG cells overexpressing FAK assessed as reduction in cell viability after 72 hrs by MTS assay
# Conditions: not given
row,Structure (SMILES),IC50 [nM]
1,CNC(=O)c1ccccc1Nc1nc(Nc2ccc(C(=O)N3CCN(C(=S)SCCN4CCCC4)CC3)cc2)ncc1Cl,200
2,CNC(=O)c1ccccc1Nc1ccnc(Nc2ccc(C(=O)N3CCN(C(=S)SCCN(C)C)CC3)cc2)n1,2800
3,CNC(=O)c1ccccc1Nc1nc(Nc2ccc(C(=O)N3CCN(C(=S)SCCC#N)CC3)cc2)ncc1Cl,1730
4,CNC(=O)c1ccccc1Nc1nc(Nc2ccc(C(=O)N3CCN(C(=S)SCc4ccncc4)CC3)cc2)ncc1Cl,1700
5,CNC(=O)c1ccccc1Nc1nc(Nc2ccc(C(=O)N3CCN(C(=S)SCC(C)O)CC3)cc2)ncc1Cl (centres undefined),870
6,C=CCSC(=S)N1CCN(C(=O)c2ccc(Nc3ncc(Cl)c(Nc4ccccc4C(=O)NC)n3)cc2)CC1,> 20000
7,CNC(=O)c1ccccc1Nc1nc(Nc2ccc(C(=O)N3CCN(C(=S)SCCN(C)C)CC3)cc2)ncc1C,280
8,CNC(=O)c1ccc(Nc2ncc(C(F)(F)F)c(NCc3nccnc3N(C)S(C)(=O)=O)n2)cc1 [DEFACTINIB],10200 to 10300
9,CNC(=O)c1ccccc1Nc1nc(Nc2ccc(C(=O)N3CCN(C(=S)SCCOC)CC3)cc2)ncc1Cl,610
10,CNC(=O)c1ccccc1Nc1nc(Nc2ccc(C(=O)N3CCN(C(=S)SCCN4CCCCC4)CC3)cc2)ncc1Cl,280

# Results, then the molecule that gave them:
row,IC50 [nM],Structure (SMILES)
1,620,CNC(=O)c1ccccc1Nc1nc(Nc2ccc(C(=O)N3CCN(C(=S)SCCN4CCN(C)CC4)CC3)cc2)ncc1Cl
2,920,CNC(=O)c1ccccc1Nc1nc(Nc2ccc(C(=O)N3CCN(C(=S)SCCS(C)(=O)=O)CC3)cc2)ncc1Cl
3,1310,CNC(=O)c1ccccc1Nc1nc(Nc2ccc(C(=O)N3CCN(C(=S)SCCC(=O)OC)CC3)cc2)ncc1Cl
4,470,CNC(=O)c1ccccc1Nc1nc(Nc2ccc(C(=O)N3CCN(C(=S)SCCN4CCOCC4)CC3)cc2)ncc1Cl

# System: MCF7
# Test: Antiproliferative activity against human MCF7 cells overexpressing FAK assessed as reduction in cell viability after 72 hrs by MTS assay
# Conditions: MCF7, 72 h
row,Structure (SMILES),IC50 [nM]
1,CNC(=O)c1ccccc1Nc1nc(Nc2ccc(C(=O)N3CCN(C(=S)SCCN4CCCC4)CC3)cc2)ncc1Cl,160
2,CNC(=O)c1ccccc1Nc1ccnc(Nc2ccc(C(=O)N3CCN(C(=S)SCCN(C)C)CC3)cc2)n1,2010
3,CNC(=O)c1ccccc1Nc1nc(Nc2ccc(C(=O)N3CCN(C(=S)SCCC#N)CC3)cc2)ncc1Cl,7170
4,CNC(=O)c1ccccc1Nc1nc(Nc2ccc(C(=O)N3CCN(C(=S)SCc4ccncc4)CC3)cc2)ncc1Cl,770
5,CNC(=O)c1ccccc1Nc1nc(Nc2ccc(C(=O)N3CCN(C(=S)SCC(C)O)CC3)cc2)ncc1Cl (centres undefined),110
6,C=CCSC(=S)N1CCN(C(=O)c2ccc(Nc3ncc(Cl)c(Nc4ccccc4C(=O)NC)n3)cc2)CC1,1380
7,CNC(=O)c1ccccc1Nc1nc(Nc2ccc(C(=O)N3CCN(C(=S)SCCN(C)C)CC3)cc2)ncc1C,80
8,CNC(=O)c1ccc(Nc2ncc(C(F)(F)F)c(NCc3nccnc3N(C)S(C)(=O)=O)n2)cc1 [DEFACTINIB],8970 to 9760
9,CNC(=O)c1ccccc1Nc1nc(Nc2ccc(C(=O)N3CCN(C(=S)SCCOC)CC3)cc2)ncc1Cl,300
10,CNC(=O)c1ccccc1Nc1nc(Nc2ccc(C(=O)N3CCN(C(=S)SCCN4CCCCC4)CC3)cc2)ncc1Cl,270

# Other lines, results leading:
row,IC50 [nM],Structure (SMILES)
1,220,CNC(=O)c1ccccc1Nc1nc(Nc2ccc(C(=O)N3CCN(C(=S)SCCN4CCN(C)CC4)CC3)cc2)ncc1Cl
2,400,CNC(=O)c1ccccc1Nc1nc(Nc2ccc(C(=O)N3CCN(C(=S)SCCS(C)(=O)=O)CC3)cc2)ncc1Cl
3,2290,CNC(=O)c1ccccc1Nc1nc(Nc2ccc(C(=O)N3CCN(C(=S)SCCC(=O)OC)CC3)cc2)ncc1Cl
4,330,CNC(=O)c1ccccc1Nc1nc(Nc2ccc(C(=O)N3CCN(C(=S)SCCN4CCOCC4)CC3)cc2)ncc1Cl

# System: MCF-10A
# Test: Cytotoxicity against human MCF10A cells assessed as reduction in cell viability after 72 hrs by MTS assay
# Conditions: not given
row,Structure (SMILES),IC50 [nM]
1,CNC(=O)c1ccccc1Nc1ccnc(Nc2ccc(C(=O)N3CCN(C(=S)SCCN(C)C)CC3)cc2)n1,6190
2,CNC(=O)c1ccccc1Nc1nc(Nc2ccc(C(=O)N3CCN(C(=S)SCCN(C)C)CC3)cc2)ncc1C,1080
3,CNC(=O)c1ccc(Nc2ncc(C(F)(F)F)c(NCc3nccnc3N(C)S(C)(=O)=O)n2)cc1 [DEFACTINIB],18400
